Assay results published in patent publication US20230255966A1, “A COMBINATION OF A CBP/P300 BROMODOMAIN INHIBITOR AND AN EGFR INHIBITOR FOR USE IN TREATING EGFR-MUTANT NSCLC” (TOLREMO THERAPEUTICS AG, priority 2020, published 2023).
Where two headings read alike, the source gives them in different places.

How the values were obtained:
HCC4006 cells = test: Label-free determination of cell proliferation (CELIGO); details: for Development of drug resistance / re-growth: HCC4006, combined with 100 nM osimertinib; for Development of drug resistance / re-growth / Effect on cell proliferation on their own: 21 days (FIG. 10); for Effect on cell proliferation on their own: HCC4006, single agent (1 μM Compound A, 0.2 μM Compound C, 0.2 μM CCS1477, 1 μM FT-6876, 0.2 μM GNE-781)
Procedure: 2000 HCC4006 (ATCC; CRL2871) were seeded into 96 well plates (Greiner BioOne 655090) one day prior to drug treatment in RPMI medium containing 10% FCS and 2 mM L-Glutamine. The next day wells were imaged label-free using brightfield imaging on a CELIGO Image Cytometer to determine the initial cell number. Subsequently cells were treated with either DMSO, with single drugs (osimertinib and each of the CBP/p300 bromodomain inhibitors) or drug combinations of 100 nM osimertinib and one CBP/p300 bromodomain inhibitor with drug concentrations given below. Plates were regularly imaged over weeks using brightfield mode (CELIGO Imaging Cytometer) to track cell proliferation in each well over time. Growth medium and treatments were replenished twice weekly. […] Cell numbers were determined using CELIGO software's built-in “direct cell counting” analysis tool in the brightfield mode.

HCC827 cells [1] = test: Cell counting by nuclear fluorescent staining (Hoechst33342); type: cell-based; details: for Effect on cell proliferation as single agent: absence of EGFR inhibitor (FIG. 3 left); for Anti-proliferative activity / re-growth in presence of Gefitinib: in presence of 300 nM Gefitinib (FIG. 3)
Procedure: Several plates were seeded, as for each time point of cell counting one plate was fixed and stained for analysis. […] Cell cultivation was continued until time of fixation and analysis for each plate. For extended time-points, medium and drugs were replenished twice weekly.
At the given time plates were washed 3 times with PBS and cells fixed with 80 μl 4% PFA for 10 min, RT. After 3 wash steps with PBS cells were stained with 10 μg/ml Hoechst33342 (Thermo Scientific H12492) in 100 μl PBS for 2 h, RT, dark. After 3× PBS washing-steps, Hoechst33342 signals were acquired on in an automated imaging mode using a Zeiss Apotome with motorized X/Y stage and a 5× objective. Image analysis and determination of Hoechst33342 spots (nuclei) was done using ImageJ. Number of nuclei was plotted as function of time using GraphPad Prism.

NCI-H1975 cells [2] = test: Gene expression analysis (qPCR of ALPP and HOPX); type: cell-based; details: 24 h; for EGFR inhibitor induced gene expression (ALPP, HOPX): NCI-H1975, 1 μM CBP/p300 inhibitor in presence of 20 nM osimertinib
Procedure: (§1) Equal amount of cDNA was then subjected to qPCR analysis using the Kapa SYBR fast kit (KK4611) in a 384 well format in a Roche Light Cycler 480. Gene expression of genes was evaluated by subtraction of housekeeping gene CT-values (b-Actin) from CT of the genes of interest, and by calculating the ΔΔCT by subtracting the DMSO control value from sample of interest to finally calculate fold change differences of treated versus control treated sample.
(§2) Data is from 2 independent experiments with qPCRs in duplicate (mean±SEM) (FIG. 1C-D).

HCC827 cells [3] = test: Gene expression analysis (qPCR of ALPP and HOPX); type: cell-based; details: HCC827, 1 μM CBP/p300 inhibitor in presence of Gefitinib, 24 h
Procedure: as §1, §2

HCC827 cells [4] = test: Label-free determination of cell proliferation (CELIGO); type: cell-based; details: for Development of drug resistance / re-growth: HCC827, combined with 100 nM osimertinib; for Development of drug resistance / re-growth / Effect on cell proliferation on their own: 21 days (FIG. 9); for Effect on cell proliferation on their own: HCC827, single agent (1 μM Compound A, 0.2 μM Compound C, 0.2 μM CCS1477, 1 μM FT-6876, 0.2 μM GNE-781)
NCI-H1975 cells [5] = test: as above; type: cell-based
NCI-H1975 xenografts = test: NCI-H1975 xenograft tumor growth; type: in vivo, NMRI-Nude mice; details: 2 mg/kg osimertinib alone
Procedure: Tumor volume was measured using a manual caliper two to three times a week. The tumor volume was calculated using the formula: lager tumor diameter x square of the smaller tumor diameter divided by 2. Based on a linear fit of the mean tumor volumes the slopes of the curves were compared by regression analysis (two-tailed).
(§3) The response was determined by comparing tumor volume change at time t to its baseline: % tumor volume change=ΔVolt=100%×((Vt−Vinitial)/Vinitial). The Best Response was the minimum value of ΔVolt for t≥10 d. For each time t, the average of ΔVolt from t=0 to t was also calculated. The BestAvgResponse is defined as the minimum value of this average for t≥10 d. This metric captures a combination of speed, strength and durability of response into a single value. […] Mice that were sacrificed because of an adverse event before they had completed 14 d on trial were removed from the data set.
as §3, with “ΔVolt for t≥6 d. For” for “ΔVolt for t≥10 d. For”

[6] = NCI-H1975, 50 nM osimertinib alone (FIG. 5)

COc1cc2ncnc(Nc3ccc(F)c(Cl)c3)c2cc1OCCCN1CCOCC1 [Gefitinib]
Cell proliferation, initial (HCC4006 cells; HCC4006, 300 nM Gefitinib alone (FIG. 8)): initially completely blocks cell proliferation
Re-growth in long-term cultures (HCC4006 cells; HCC4006, 300 nM Gefitinib only (FIG. 8)): HCC4006 cells re-grow if treated with Gefitinib only

COc1ccc(CCc2nc3cc(-c4c(C)noc4C)ccc3n2C[C@H](C)N2CCOCC2)cc1Cl [SGC-CBP30]
Effect on cell proliferation as single agent (HCC827 cells [1]): do not affect cell proliferation
Anti-proliferative activity / re-growth in presence of Gefitinib (HCC827 cells [1]): potentiate the effect of the EGFR inhibitor

CNC(=O)Nc1ccc2c(c1)CC[C@@]21OC(=O)N(CC(=O)N(Cc2ccc(F)cc2)[C@@H](C)C(F)(F)F)C1=O [Compound A-485]
Effect on cell proliferation as single agent (HCC827 cells [1]): affect cell proliferation
EGFR inhibitor induced gene expression (ALPP, HOPX) (NCI-H1975 cells [2]): reverse EGFR inhibitor induced gene expression
EGFR inhibitor induced gene expression (ALPP, HOPX) (HCC827 cells [3]): reverse EGFR inhibitor induced gene expression

COc1cncc(-c2cc(Nc3cccc(F)c3)nc([C@@H]3CC[C@H](C)N(C(C)=O)C3)n2)c1 [Compound A]
Re-growth under continuous Gefitinib exposure (HCC827 cells [1]; in combination with 20 nM Gefitinib (FIG. 2A)): Re-growth is inhibited
Anti-proliferative activity / re-growth in presence of Gefitinib (HCC827 cells [1]): potentiate the effect of the EGFR inhibitor
EGFR inhibitor induced gene expression (ALPP, HOPX) (NCI-H1975 cells [2]): reverse EGFR inhibitor induced gene expression
EGFR inhibitor induced gene expression (ALPP, HOPX) (HCC827 cells [3]): reverse EGFR inhibitor induced gene expression
Re-growth in long-term cultures (HCC827 cells [4]; HCC827, 300 nM Gefitinib + 1 μM Compound A, >22 days (FIG. 4)): significantly delays or completely prevents re-grow
Effect on cell numbers on its own (HCC827 cells [4]; HCC827, 1 μM Compound A alone (FIG. 4)): weak/no effect on cell numbers
Development of drug resistance / re-growth (HCC827 cells [4]): prevent the development of drug resistance
Growth long-term (NCI-H1975 cells [5]; NCI-H1975, 50 nM osimertinib with 2.0, 0.5 or 0.125 μM co-treatment (FIG. 5)): delayed
Effect on cell numbers on their own (NCI-H1975 cells [5]; NCI-H1975, 2 μM single agent (FIG. 5)): no/weak effect on cell numbers

C=CC(=O)Nc1cc(Nc2nccc(-c3cn(C)c4ccccc34)n2)c(OC)cc1N(C)CCN(C)C [osimertinib]
Slope of linear regression fit of mean tumor volumes over time (NCI-H1975 xenografts): +6.4
ALPP and HOPX gene expression (NCI-H1975 cells [2]; NCI-H1975, EGFR inhibitor (20 nM osimertinib) alone): upregulation of example genes ALPP and HOPX
Cell proliferation, initial (HCC827 cells [4]): initially blocks cell proliferation
Re-growth in long-term cultures (HCC827 cells [4]): HCC827 cells re-grow if treated with osimertinib only
Cell proliferation, initial (HCC4006 cells; HCC4006, 100 nM osimertinib alone (FIG. 10)): initially blocks cell proliferation
Re-growth in long-term cultures (HCC4006 cells; HCC4006, 100 nM osimertinib only (FIG. 10)): HCC4006 cells re-grow if treated with osimertinib only
Cell proliferation, initial (NCI-H1975 cells [5]; [6]): initially blocks cell proliferation
Growth long-term (NCI-H1975 cells [5]; [6]): cells continue growing with a slow rate

CC(=O)N1C[C@H](c2nc(Nc3ccc4[nH]ncc4c3)cc(-c3cccnc3)n2)CC[C@@H]1C [Compound 00030]
Effect on cell proliferation as single agent (HCC827 cells [1]): absence of an anti-proliferative effect
Anti-proliferative activity / re-growth in presence of Gefitinib (HCC827 cells [1]): potentiate the effect of the EGFR inhibitor

O=C1[C@H](Cc2ccc(O)cc2)N2C(=O)CCN(C(=O)NCc3ccccc3)[C@H]2CN1Cc1cccc2ccccc12 [ICG-001]
EGFR inhibitor induced gene expression (ALPP, HOPX) (NCI-H1975 cells [2]): does not blunt EGFR-induced gene expression
EGFR inhibitor induced gene expression (ALPP, HOPX) (HCC827 cells [3]): does not blunt EGFR-induced gene expression

COC(=O)N1c2ccc3c(nc(Cc4ccccc4)n3[C@H]3CCC[C@H](C(=O)O)C3)c2CC[C@@H]1C [FT-6876]
Development of drug resistance / re-growth (HCC827 cells [4]): prevent the development of drug resistance
Effect on cell proliferation on their own (HCC827 cells [4]): do not affect cell proliferation
Development of drug resistance / re-growth (HCC4006 cells): prevent the development of drug resistance
Effect on cell proliferation on their own (HCC4006 cells): do not affect cell proliferation

CNC(=O)N1CCc2c(c(N3CCCc4cc(-c5cnn(C)c5)c(C(F)F)cc43)nn2C2CCOCC2)C1 [GNE-781]
Development of drug resistance / re-growth (HCC827 cells [4]): prevent the development of drug resistance
Effect on cell proliferation on their own (HCC827 cells [4]): do not affect cell proliferation
Development of drug resistance / re-growth (HCC4006 cells): prevent the development of drug resistance
Effect on cell proliferation on their own (HCC4006 cells): do not affect cell proliferation
